Reference: patent US5684166A, “(-3-ketotetrahydrofuran-2-yl) ethanal derivatives and a method for their preparation” (Biocure Limited, priority 1993, dated 1997)

How the values were obtained:
Type in all cases: cell-based
[1] = test system: KHOS/NP (Human osteocarcinoma); experiment: in vitro culture cell number, KHOS/NP
Description: (§1) Substances having the structures of the synthesised target material when added to in vitro cultures of various cancer cell lines produced a dose-related cell death as indicated in the Tables below.

[2] = test system: G361 (Human malignant melanoma); experiment: in vitro culture cell number, G361
Description: as §1

[3] = test system: WIL2 (Human B lymphoblastoma); experiment: in vitro culture cell number, WIL2
Description: as §1

[4] = test system: PA-1 (Human ovarian teratocarcinoma); experiment: in vitro culture cell number, PA-1
Description: as §1

[5] = test system: PC3 (Human prostate adenocarcinoma); experiment: in vitro culture cell number, PC3
Description: as §1

[6] = test system: CaSki (Human cervical epidermoid carcinoma); experiment: in vitro culture cell number, CaSki
Description: as §1

[7] = test system: MOLT4 (Human Tcell leukaemia); experiment: in vitro culture cell number, MOLT4
Description: as §1

[8] = test system: WiDr (Human colon adenocarcinoma); experiment: in vitro culture cell number, WiDr
Description: as §1

[9] = test system: HeLa (Human cervical carcinoma); experiment: in vitro culture cell number, HeLa
Description: as §1

[10] = Homo sapiens, 2.0 μg/ml, P < 0.001, read-out: Cell No (% Control)
[11] = Homo sapiens, 5.0 μg/ml, P < 0.001, read-out: Cell No (% Control)
[12] = Homo sapiens, 7.5 μg/ml, P < 0.001, read-out: Cell No (% Control)
[13] = Homo sapiens, 10.0 μg/ml, P < 0.001, read-out: Cell No (% Control)
[14] = Homo sapiens, 20.0 μg/ml, P < 0.001, read-out: Cell No (% Control)

With O=CCC1OCCC1=O (racemic) [Compound 8, (3-ketotetrahydrofuran-2-yl)ethanal] the “Cell No” value ([1]; 2.0 μg/ml) was 9442, the “Cell No” value ([1]; 5.0 μg/ml) was 6356 and the “Cell No” value ([1]; 7.5 μg/ml) was 2469. The “Cell No” value ([1]; 10.0 μg/ml) was 862, the “Cell No” value ([1]; 20.0 μg/ml) was 380 and the activity at 2 µg/mL [1, 10] was 84.5%. For the same molecule, the activity at 5 µg/mL [1, 11] was 56.9%, the activity at 7.5 µg/mL [1, 12] was 22.1% and the activity at 10 µg/mL [1, 13] was 7.7%. The activity at 20 µg/mL [1, 14] was 3.4%, the “Cell No” value ([2]; G361, 2.0 μg/ml) was 1679 and the “Cell No” value ([2]; G361, 5.0 μg/ml) was 314. For the same molecule, the “Cell No” value ([2]; G361, 7.5 μg/ml) was 159, the “Cell No” value ([2]; G361, 10.0 μg/ml) was 142 and the “Cell No” value ([2]; G361, 20.0 μg/ml) was 230. It also gave an activity at 2 µg/mL ([2]; Homo sapiens, G-361, G361, 2.0 μg/ml, P < 0.001, read-out: Cell No (% Control)) of 35.8%, an activity at 5 µg/mL ([2]; Homo sapiens, G-361, G361, 5.0 μg/ml, P < 0.001, read-out: Cell No (% Control)) of 6.7% and an activity at 7.5 µg/mL ([2]; Homo sapiens, G-361, G361, 7.5 μg/ml, P < 0.001, read-out: Cell No (% Control)) of 3.4%. The activity at 10 µg/mL ([2]; Homo sapiens, G-361, G361, 10.0 μg/ml, P < 0.001, read-out: Cell No (% Control)) was 3%, the activity at 20 µg/mL ([2]; Homo sapiens, G-361, G361, 20.0 μg/ml, P < 0.001, read-out: Cell No (% Control)) was 4.9% and the activity at 0.5 µg/mL ([3]; Homo sapiens, WIL2, 0.5 μg/ml, P < 0.001, read-out: Cell No (% Control)) was 85.3%. The activity at 1 µg/mL ([3]; Homo sapiens, WIL2, 1.0 μg/ml, P < 0.001, read-out: Cell No (% Control)) was 58.8%, the activity at 1.5 µg/mL ([3]; Homo sapiens, WIL2, 1.5 μg/ml, P < 0.001, read-out: Cell No (% Control)) was 24.9% and the activity at 2 µg/mL ([3]; Homo sapiens, WIL2, 2.0 μg/ml, P < 0.001, read-out: Cell No (% Control)) was 16.1%. For the same molecule, the activity at 5 µg/mL ([3]; Homo sapiens, WIL2, 5.0 μg/ml, P < 0.001, read-out: Cell No (% Control)) was 7.1%, the “Cell No” value ([3]; WIL2, 0.5 μg/ml) was 8431 and the “Cell No” value ([3]; WIL2, 1.0 μg/ml) was 5810. The “Cell No” value ([3]; WIL2, 1.5 μg/ml) was 2459, the “Cell No” value ([3]; WIL2, 2.0 μg/ml) was 1591 and the “Cell No” value ([3]; WIL2, 5.0 μg/ml) was 705. The activity at 0.5 µg/mL ([4]; Homo sapiens, PA-1, 0.5 μg/ml, P < 0.001, read-out: Cell No (% Control)) was 84.3%, the activity at 1 µg/mL ([4]; Homo sapiens, PA-1, 1.0 μg/ml, P < 0.001, read-out: Cell No (% Control)) was 84.9% and the activity at 1.5 µg/mL ([4]; Homo sapiens, PA-1, 1.5 μg/ml, P < 0.001, read-out: Cell No (% Control)) was 77.3%. The activity at 2 µg/mL ([4]; Homo sapiens, PA-1, 2.0 μg/ml, P < 0.001, read-out: Cell No (% Control)) was 72.4%, the activity at 5 µg/mL ([4]; Homo sapiens, PA-1, 5.0 μg/ml, P < 0.001, read-out: Cell No (% Control)) was 20.9% and the “Cell No” value ([4]; PA-1, 0.5 μg/ml) was 11346. For the same molecule, the “Cell No” value ([4]; PA-1, 1.0 μg/ml) was 11276, the “Cell No” value ([4]; PA-1, 1.5 μg/ml) was 10338 and the “Cell No” value ([4]; PA-1, 2.0 μg/ml) was 9678. The “Cell No” value ([4]; PA-1, 5.0 μg/ml) was 2729, the activity at 2 µg/mL ([5]; Homo sapiens, PC-3, PC3, 2.0 μg/ml, P < 0.05, read-out: Cell No (% Control)) was 87.9% and the activity at 5 µg/mL ([5]; Homo sapiens, PC-3, PC3, 5.0 μg/ml, P < 0.001, read-out: Cell No (% Control)) was 67.4%. It also gave an activity at 7.5 µg/mL ([5]; Homo sapiens, PC-3, PC3, 7.5 μg/ml, P < 0.001, read-out: Cell No (% Control)) of 32.9%, an activity at 10 µg/mL ([5]; Homo sapiens, PC-3, PC3, 10.0 μg/ml, P < 0.001, read-out: Cell No (% Control)) of 9.3% and an activity at 20 µg/mL ([5]; Homo sapiens, PC-3, PC3, 20.0 μg/ml, P < 0.001, read-out: Cell No (% Control)) of 5.9%. For the same molecule, the “Cell No” value ([5]; PC3, 2.0 μg/ml) was 5908, the “Cell No” value ([5]; PC3, 5.0 μg/ml) was 4532 and the “Cell No” value ([5]; PC3, 7.5 μg/ml) was 2211. The “Cell No” value ([5]; PC3, 10.0 μg/ml) was 627, the “Cell No” value ([5]; PC3, 20.0 μg/ml) was 399 and the “Cell No” value ([6]; 2.0 μg/ml) was 4401. The “Cell No” value ([6]; 5.0 μg/ml) was 4617, the “Cell No” value ([6]; 7.5 μg/ml) was 3495 and the “Cell No” value ([6]; 10.0 μg/ml) was 2800. For the same molecule, the “Cell No” value ([6]; 20.0 μg/ml) was 234, the activity at 2 µg/mL ([6]; Homo sapiens, Ca-Ski, 2.0 μg/ml, P < 0.001, read-out: Cell No (% Control)) was 89.1% and the activity at 5 µg/mL ([6]; Homo sapiens, Ca-Ski, 5.0 μg/ml, read-out: Cell No (% Control)) was 93.5%. It also gave an activity at 7.5 µg/mL ([6]; Homo sapiens, Ca-Ski, 7.5 μg/ml, P < 0.001, read-out: Cell No (% Control)) of 70.8%, an activity at 10 µg/mL ([6]; Homo sapiens, Ca-Ski, 10.0 μg/ml, P < 0.001, read-out: Cell No (% Control)) of 56.7% and an activity at 20 µg/mL ([6]; Homo sapiens, Ca-Ski, 20.0 μg/ml, P < 0.001, read-out: Cell No (% Control)) of 4.7%. The activity at 0.5 µg/mL ([7]; Homo sapiens, MOLT-4, MOLT4, 0.5 μg/ml, P < 0.001, read-out: Cell No (% Control)) was 91.2%, the activity at 1 µg/mL ([7]; Homo sapiens, MOLT-4, MOLT4, 1.0 μg/ml, P < 0.001, read-out: Cell No (% Control)) was 78.8% and the activity at 1.5 µg/mL ([7]; Homo sapiens, MOLT-4, MOLT4, 1.5 μg/ml, P < 0.001, read-out: Cell No (% Control)) was 53.7%. For the same molecule, the activity at 2 µg/mL ([7]; Homo sapiens, MOLT-4, MOLT4, 2.0 μg/ml, P < 0.001, read-out: Cell No (% Control)) was 34.2%, the activity at 5 µg/mL ([7]; Homo sapiens, MOLT-4, MOLT4, 5.0 μg/ml, P < 0.001, read-out: Cell No (% Control)) was 12.4% and the “Cell No” value ([7]; MOLT4, 0.5 μg/ml) was 4543. For the same molecule, the “Cell No” value ([7]; MOLT4, 1.0 μg/ml) was 3920, the “Cell No” value ([7]; MOLT4, 1.5 μg/ml) was 2674 and the “Cell No” value ([7]; MOLT4, 2.0 μg/ml) was 1701. For the same molecule, the “Cell No” value ([7]; MOLT4, 5.0 μg/ml) was 619, the “Cell No” value ([8]; 2.0 μg/ml) was 5845 and the “Cell No” value ([8]; 5.0 μg/ml) was 5762. For the same molecule, the “Cell No” value ([8]; 7.5 μg/ml) was 5097, the “Cell No” value ([8]; 10.0 μg/ml) was 3826 and the “Cell No” value ([8]; 20.0 μg/ml) was 178. For the same molecule, the activity at 2 µg/mL ([8]; Homo sapiens, 2.0 μg/ml, P < 0.05, read-out: Cell No (% Control)) was 90.9%, the activity at 5 µg/mL ([8]; Homo sapiens, 5.0 μg/ml, P < 0.05, read-out: Cell No (% Control)) was 89.6% and the activity at 7.5 µg/mL [8, 12] was 79.3%. For the same molecule, the activity at 10 µg/mL [8, 13] was 59.5%, the activity at 20 µg/mL [8, 14] was 2.8% and the “Cell No” value ([9]; 0.5 μg/ml) was 12165. The “Cell No” value ([9]; 1.0 μg/ml) was 10932, the “Cell No” value ([9]; 1.5 μg/ml) was 7453 and the “Cell No” value ([9]; 2.0 μg/ml) was 4675. The “Cell No” value ([9]; 5.0 μg/ml) was 201, the activity at 0.5 µg/mL ([9]; Homo sapiens, 0.5 μg/ml, P < 0.001, read-out: Cell No (% Control)) was 83.9% and the activity at 1 µg/mL ([9]; Homo sapiens, 1.0 μg/ml, P < 0.001, read-out: Cell No (% Control)) was 75.4%. The activity at 1.5 µg/mL ([9]; Homo sapiens, 1.5 μg/ml, P < 0.001, read-out: Cell No (% Control)) was 51.4%, the activity at 2 µg/mL [9, 10] was 32.2% and the activity at 5 µg/mL [9, 11] was 1.4%.
